Results reported in PubChem BioAssay (NCI).
Several values for one entry are separate records, joined by “and”; a condition that tells them apart may be missing. Equal entries are not always repeated.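 Interpolation was linear, between the two tested concentrations surrounding the appropriate level; five concentrations were tested over 48 hours in 96-well plates. GI50 is the concentration that inhibits growth by half. Definition used: TGI = concentration required for complete inhibition of growth.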

What was measured:
Experiment in all cases: NCI-60 cell line screen, 48 h
HT29 colon = system: HT29 colon
CCRF-CEM leukemia = system: CCRF-CEM leukemia
HCT-15 colon = system: HCT-15 colon
SNB-19 CNS = system: SNB-19 CNS
IGROV1 ovarian = system: IGROV1 ovarian
SW-620 colon = system: SW-620 colon
UACC-62 melanoma = system: UACC-62 melanoma
LOX IMVI melanoma = system: LOX IMVI melanoma
OVCAR-8 ovarian = system: OVCAR-8 ovarian
DU-145 prostate = system: DU-145 prostate

Compound | GI50 (HT29 colon) [µM] | TGI (HT29 colon) [µM] | GI50 (CCRF-CEM leukemia) [µM] | TGI (CCRF-CEM leukemia) [µM] | GI50 (HCT-15 colon) [µM] | TGI (HCT-15 colon) [µM] | GI50 (SNB-19 CNS) [µM] | TGI (SNB-19 CNS) [µM] | GI50 (IGROV1 ovarian) [µM] | TGI (IGROV1 ovarian) [µM] | GI50 (SW-620 colon) [µM] | TGI (SW-620 colon) [µM] | GI50 (UACC-62 melanoma) [µM] | TGI (UACC-62 melanoma) [µM] | GI50 (LOX IMVI melanoma) [µM] | TGI (LOX IMVI melanoma) [µM] | GI50 (OVCAR-8 ovarian) [µM] | TGI (OVCAR-8 ovarian) [µM] | GI50 (DU-145 prostate) [µM] | TGI (DU-145 prostate)
CCCCCCCCCCCCCCCC(=O)OCC1OC(OCCCC)[C@H](O[C@@H]2OC(C)C(OC(=O)CCC)C(O)C2O)C(O)C1O (some centres undefined) | 18.6 | 38.7 | 17.2 | 35 | 22.5 | 55.7 | 15.4 | 32.8 | 23.1 | > 100 | 21.9 | 44.5 | 10.2 | 23.6 | 20 | 44 | 17 | 32.9 | 19.7 | 35 µM
Nc1ncc(-c2ccc3ncnc(N4CCc5cc(F)c(Cl)cc54)c3c2)cc1C=O | 1.57 | > 100 | 2.12 | > 100 | 2.41 | > 100 | 2.28 | > 100 | 0.314 | 2.39 | – | – | 0.574 | 3.02 | 2.52 | > 100 | 2.54 | > 100 | 0.936 | > 100 µM
CCN1C[C@@H](C)n2c(c(O)c3c(=O)n(Cc4ccc(F)c(Cl)c4)nc(C(=O)NC)c32)C1=O | 3.9 | 15.5 | 3.57 | > 100 | 2.57 | 8.28 | 3.37 | > 100 | 3.74 | > 100 | 3.11 | > 100 | – | – | 3.13 | 18 | 3.34 | > 100 | 3.57 | 13.8 µM
Cn1ccc(S(=O)(=O)N2CCC[C@H](Nc3nccc(-c4c(-c5cccc(O)c5)nc5occn45)n3)C2)n1 | 0.732 | 34.7 | 4.47 | > 100 | 22.3 | > 93.8 | 46.4 | > 100 | 10.9 | 51.9 | 15.9 | > 64.2 | 0.0643 | 3.4 | 2.87 | 18.7 | 18.9 | > 100 | 16.6 | > 100 µM
O=C(CC(O)(C(F)(F)F)C(F)(F)F)c1cccs1 | – | > 10 | – | > 10 | – | > 10 | – | > 10 | – | > 10 | – | > 10 | – | > 10 | – | > 10 | – | > 10 | – | > 10 µM
O=C1NC(c2cccc3ccccc23)Nc2ccc(Cl)cc21 (centres undefined) | – | 0.105 | – | 0.0512 | – | 0.269 | – | > 100 | – | 32.9 | – | 17.2 | – | – | – | 14.6 | – | 11.4 | – | 0.169 µM and 1.43 µM
C/C(=N\O)C1CC(CC(=O)O)C1(C)C (centres undefined) | – | > 100 | – | > 100 | – | > 100 | – | > 100 | – | > 100 | – | > 100 | – | > 100 | – | > 100 | – | > 100 | – | > 100 µM
Nc1nc(N)c2c(Cl)c(CNc3ccc(Cl)c(Cl)c3)ccc2n1 | – | 10.3 | – | 12.1 | – | 13.6 | – | 17.7 | – | 13.4 | – | 14.6 | – | 13.7 | – | 7.37 | – | 16 | – | 15.7 µM
CC1(C)CCC2(C(=O)O)C(O)CC3(C)C(=CCC4C5(C)CCC(OC6OCC(O)C(O)C6OC6OCC(O)C(O)C6OC6OCC(O)C(OC7OC(CO)C(O)C(O)C7O)C6O)C(C)(C)C5CCC43C)C2C1 (centres undefined) | – | > 100 | – | 71.9 | – | > 100 | – | 43.6 | – | > 100 | – | > 100 | – | > 100 | – | > 100 | – | > 100 | – | > 100 µM
O=C1NC(=NCCc2ccccc2F)S/C1=C\c1ccc2ncccc2c1 | 5.87 | > 25 | 5.05 | > 20.1 | 1.84 | > 25 | 5.68 | > 25 | 7.02 | > 25 | 2.73 | > 25 | 7.1 | > 25 | 1.82 | > 25 | 9.65 | > 25 | 8.81 | > 25 µM
Cc1ncnc2c1ccn2[C@@H]1C[C@H](Oc2cc(C(F)F)c(F)c3c2CNCC3)[C@@H](O)[C@H]1O | > 100 | > 100 | > 100 | > 100 | > 100 | > 100 | > 100 | > 100 | > 100 | > 100 | > 100 | > 100 | > 100 | > 100 | > 100 | > 100 | > 100 | > 100 | > 100 | > 100 µM
CCN(CC)CCOc1ccc2c(-c3ccccc3)c(-c3ccc(OC)cc3)c(=O)oc2c1 | 3 | 11.4 | 3.34 | 15.4 | 2.64 | 8.18 | 10.2 | 22.2 | – | – | 2.14 | 5.76 | 3.82 | 15 | 1.93 | 4.27 | 13.1 | 29.1 | 10.5 | 22.6 µM
N=C1C(c2nc3ccccc3c(=O)[nH]2)=C(O)CN1c1cccc(Cl)c1 | 0.845 | > 100 | 2.88 | > 100 | 1.51 | > 100 | 6.74 | > 100 | 37.6 | > 100 | 3.28 | > 100 | 3.27 | > 100 | 5.68 | > 100 | 5.35 | > 100 | 5.12 | > 57.9 µM
Cn1cc(Nc2nccc(-c3ccc4c(c3)CN(C3COC3)CC[C@H]4NC(=O)c3cn(C(C)(C)C)nn3)n2)cn1 | 33 | > 100 | > 100 | > 100 | > 100 | > 100 | > 100 | > 100 | 32 | > 100 | > 100 | > 100 | 23.1 | > 100 | 38.5 | > 100 | > 100 | > 100 | > 100 | > 100 µM
COc1cc(C(=O)/C=C/c2cccnc2Nc2ccc(Cl)cc2)cc(OC)c1OC | 1.43 | 3.25 | 0.369 | 4.87 | 1.49 | 3.48 | 1.52 | 2.88 | 2.24 | 4.78 | 0.955 | 2.47 | 1.54 | 2.98 | 1.27 | 2.59 | 1.63 | 4.31 | 1.63 | 2.98 µM
COC(=O)C1C(=O)C(C(=O)OC)C2CCC1N2C (centres undefined) | – | > 100 | – | > 78.1 | – | > 100 | – | > 100 | – | > 100 | – | > 100 | – | > 100 | – | > 83.1 | – | > 100 | – | > 100 µM
N#Cc1ncc(-c2ccc(C(F)(F)F)cc2)c(NC2CCCCCC2)n1 | 9.35 | > 100 | 9.97 | > 100 | 8.53 | > 100 | 15.3 | > 100 | 38.8 | > 100 | 8.64 | > 100 | 24.5 | > 100 | – | – | 70.8 | > 100 | 44.8 | > 100 µM
CC(C)(Oc1cccc(N2CCC[C@@H](C(=O)N(Cc3ccc(-c4cn[nH]c4)cc3)C3CC3)C2)c1)C(=O)N1CCNCC1 | 6.3 | 19.7 | 24.1 | > 100 | 14.6 | 28.9 | 15.1 | 29.7 | 12.3 | 26.8 | 15.5 | 31.5 | – | – | 11.8 | 25 | 18.6 | 42.7 | 14.5 | 28 µM
COc1ccc(/C=C/C(=O)C(=O)/C=C/c2ccc(OC)c(OC)c2)cc1OC | 0.763 | 2.62 | 2.22 | 20 | 0.769 | 6.18 | 3.11 | 23.3 | – | – | 1.08 | 3.31 | 1.92 | 4.87 | 1.46 | 3.21 | 2.97 | > 100 | 3.08 | 14.2 µM
CCCCNC(=O)CC1=C(C)/C(=C/c2[nH]c(-c3ccc[nH]3)cc2OC)N=C1C | 2.18 | 11.1 | 1.71 | 8.88 | 1.88 | 4.12 | 4.09 | 30.1 | 3.23 | 10.3 | 3.23 | 13.9 | – | – | 1.56 | 3.17 | 3.44 | 11.1 | 4 | 16.6 µM
CCN1CCCCCCCCCC(=N/O)/C(=N\O)C1 | – | > 100 | – | > 100 | – | > 100 | – | > 100 | – | > 100 | – | > 100 | – | – | – | > 100 | – | > 100 | – | > 100 µM
